This is an account of results in patent publication US20220152203A1, “BROAD-BASED THERAPEUTIC FOR INACTIVATING COVID-19 AND OTHER VIRAL PATHOGENS USING CHEMILUMINESCENCE-ACTIVATED COMPOUNDS ENCAPSULATED IN NANOPARTICLES” (priority 2020, published 2022).

The conditions of series [1]: cited from earlier work.
For series [2], the system named is HIV-1ΔtatΔrev. It is filed as cell-based.
Series [3] has as its system HIV. The note with it: hypericin with “molecular flashlight”, cell culture in vitro; cited from earlier work.
For series [4] the following is noted: −20° C. in the absence of light and oxygen; cited from earlier work.

In brackets after ≈: the same amount, converted by molar mass. Several values for one entry are separate records, joined by “and”; a condition that tells them apart may be missing. Equal values may be shown once. Read-outs that look alike come from different tables or passages of the source.

With `O=C(O)C1CSC(c2nc3ccc(O)cc3s2)=N1` [D-luciferin, 4,5-Dihydro-2-(6-hydroxy-2-benzothiazolyl)-4-thiazolecarboxylic acid], the “solubility in DMSO” value in series [1] (DMSO) is given as 50 mg/mL (≈ 178 mM). In series [1] (methanol), the solubility in methanol is given as 10 mg/mL (≈ 35.7 mM).
Take `Cc1cc(O)c2c(=O)c3c(O)cc(O)c4c5c(O)cc(O)c6c(=O)c7c(O)cc(C)c8c1c2c(c34)c(c78)c65` [hypericin, Hypericin]: the “HIV p24 concentration as a function of time after infection” value (from here on “HIV p24 concentration as a function”) in series [2] (day 0 (inoculum), hypericin exposed to the light (positive control)) is 1 ng/mL; in series [2] (day 0 (inoculum), not exposed to light, hypericin 5 μmol, 2 h 37° C., replicates 1-3) it was 1 ng/mL; in series [2] (day 3, hypericin exposed to the light (positive control)), 0.05 ng/mL; in series [2] (day 3, not exposed to light, hypericin 5 μmol, 2 h 37° C., replicates 1-3), 0.05 ng/mL; in series [2] (day 6, hypericin exposed to the light (positive control)), 0.05 ng/mL; in series [2] (day 6, not exposed to light, hypericin 5 μmol, 2 h 37° C., replicates 1-3, listed as Hyp only), 19.34 ng/mL and 12.13 ng/mL and 11 ng/mL. Moreover, the “HIV p24 concentration as a function” value is 3 ng/mL in series [2] (day 9, hypericin exposed to the light (positive control)); 1,055 ng/ml and 831 ng/ml and 1,120 ng/ml in series [2] (day 9, not exposed to light, hypericin 5 μmol, 2 h 37° C., replicates 1-3, listed as Hyp only); 2.9 ng/mL in series [2] (day 13, hypericin exposed to the light (positive control)); 1,985 ng/ml and 3,501 ng/ml and 3,270 ng/ml in series [2] (day 13, not exposed to light, hypericin 5 μmol, 2 h 37° C., replicates 1-3, listed as Hyp only); 0.05 ng/mL in series [2] (day 16, hypericin exposed to the light (positive control)); 1,870 ng/ml and 1543 ng/ml and 923 ng/ml in series [2] (day 16, not exposed to light, hypericin 5 μmol, 2 h 37° C., replicates 1-3, listed as Hyp only). Moreover, the “HIV p24 concentration as a function” value in series [2] (day 20, hypericin exposed to the light (positive control)) was 6.6 ng/mL; in series [2] (day 20, not exposed to light, hypericin 5 μmol, 2 h 37° C., replicates 1-3, listed as Hyp only) it was 1,763 ng/ml and 2,789 ng/ml and 2,775 ng/ml. Further, in series [3], the “effect on host cells” value is listed as “without harming these cells”. For the same molecule, in series [1] (DMSO), the solubility result is on record as “soluble in DMSO”. Besides, in series [4], the storage stability entry was “stable”.
